The values that follow come from patent publication US9079901B2, “Fused heterocyclic compounds as ion channel modulators” (Gilead Sciences, Inc., priority 2010, dated 2015).

The structures appear in SMILES notation.

The test concerns the target wild-type human cardiac sodium channel, hNav1.5 (late sodium current) in HEK293 cells (Homo sapiens, UniProt Q14524). The test can be described thus: Late INa screening assay (automated whole-cell patch clamp, PatchXpress). Type of test: cell-based. The conditions noted are these: HEK293, compound at 1 μM; late INa generated with 10 μM Tefluthrin (or 50 nM ATX II); HEK293 hNav1.5; read-out: Late INa 1 μM (percent block of late INa). The procedure, abridged: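 hNav1.5-expressing HEK293 cells (no β subunits) were recorded by automated whole-cell patch clamp at 24–27 °C with CsF-based internal solution. Late current was induced by 10 μM tefluthrin (or 50 nM ATX II) and evoked by 250 ms steps from −120 to −20 mV at 0.1 Hz. Compounds, typically 10 μM, were applied in three additions over 7–8 min; mean current at 225–250 ms, normalised to 0Na baseline, gave percent block.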
Background: The patch-clamp technique gives a direct electrical read-out from membranes.

Chain of wild-type human cardiac sodium channel, hNav1.5 (late sodium current) in HEK293 cells (Q14524 whole entry): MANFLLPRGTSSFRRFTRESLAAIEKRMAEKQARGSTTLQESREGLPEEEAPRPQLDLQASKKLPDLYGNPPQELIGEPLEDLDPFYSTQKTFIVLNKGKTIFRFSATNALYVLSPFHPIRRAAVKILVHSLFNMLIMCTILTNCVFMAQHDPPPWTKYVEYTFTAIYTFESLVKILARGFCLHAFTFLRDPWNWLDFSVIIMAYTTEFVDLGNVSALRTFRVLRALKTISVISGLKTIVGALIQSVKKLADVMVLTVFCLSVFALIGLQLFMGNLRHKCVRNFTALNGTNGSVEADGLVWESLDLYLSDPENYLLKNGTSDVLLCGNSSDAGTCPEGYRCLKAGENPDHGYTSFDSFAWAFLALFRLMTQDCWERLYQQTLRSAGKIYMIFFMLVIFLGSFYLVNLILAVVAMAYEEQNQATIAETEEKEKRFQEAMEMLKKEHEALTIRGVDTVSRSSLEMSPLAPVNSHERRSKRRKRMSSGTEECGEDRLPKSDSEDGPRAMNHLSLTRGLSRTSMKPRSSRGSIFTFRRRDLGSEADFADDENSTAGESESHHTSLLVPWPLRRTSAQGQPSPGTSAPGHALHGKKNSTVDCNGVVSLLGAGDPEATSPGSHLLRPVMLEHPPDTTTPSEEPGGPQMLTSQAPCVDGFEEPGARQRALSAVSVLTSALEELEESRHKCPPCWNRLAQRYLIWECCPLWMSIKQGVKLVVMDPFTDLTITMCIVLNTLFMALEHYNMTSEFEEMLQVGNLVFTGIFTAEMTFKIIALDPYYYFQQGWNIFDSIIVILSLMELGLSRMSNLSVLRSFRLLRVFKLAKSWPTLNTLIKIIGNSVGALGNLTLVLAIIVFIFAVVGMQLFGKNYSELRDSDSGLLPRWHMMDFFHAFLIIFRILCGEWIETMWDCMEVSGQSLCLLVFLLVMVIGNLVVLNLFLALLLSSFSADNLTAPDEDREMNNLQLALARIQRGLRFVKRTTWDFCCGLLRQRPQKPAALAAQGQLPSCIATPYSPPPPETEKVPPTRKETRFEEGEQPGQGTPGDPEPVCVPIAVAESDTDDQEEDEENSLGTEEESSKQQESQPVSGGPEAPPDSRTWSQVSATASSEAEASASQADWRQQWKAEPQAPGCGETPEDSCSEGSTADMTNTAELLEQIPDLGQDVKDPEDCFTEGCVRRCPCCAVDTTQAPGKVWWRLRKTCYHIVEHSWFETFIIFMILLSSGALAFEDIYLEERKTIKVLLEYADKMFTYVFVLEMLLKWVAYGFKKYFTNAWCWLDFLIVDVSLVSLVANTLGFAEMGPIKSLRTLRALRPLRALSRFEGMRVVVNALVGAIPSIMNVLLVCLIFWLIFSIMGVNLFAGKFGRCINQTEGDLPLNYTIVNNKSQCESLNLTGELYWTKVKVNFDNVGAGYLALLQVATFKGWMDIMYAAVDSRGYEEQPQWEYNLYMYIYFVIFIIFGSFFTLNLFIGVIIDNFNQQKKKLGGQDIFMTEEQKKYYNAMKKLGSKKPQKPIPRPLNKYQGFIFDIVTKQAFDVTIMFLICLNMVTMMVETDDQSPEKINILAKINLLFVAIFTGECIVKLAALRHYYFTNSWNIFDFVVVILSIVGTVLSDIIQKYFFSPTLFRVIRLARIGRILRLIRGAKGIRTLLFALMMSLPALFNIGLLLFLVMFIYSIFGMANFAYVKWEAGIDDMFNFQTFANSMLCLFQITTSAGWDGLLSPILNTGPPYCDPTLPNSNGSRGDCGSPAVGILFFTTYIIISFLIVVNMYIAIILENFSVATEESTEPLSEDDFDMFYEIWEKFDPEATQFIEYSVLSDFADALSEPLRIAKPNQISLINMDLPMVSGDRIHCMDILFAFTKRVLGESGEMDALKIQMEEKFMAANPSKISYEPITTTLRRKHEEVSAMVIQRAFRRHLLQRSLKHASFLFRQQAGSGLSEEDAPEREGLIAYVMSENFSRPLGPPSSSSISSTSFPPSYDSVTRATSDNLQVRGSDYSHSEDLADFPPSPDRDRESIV

Consider `Cc1noc(Cn2nc3ccc(-c4ccc(Cl)c(F)c4)cn3c2=O)n1` [compound 161, 6-(4-chloro-3-fluorophenyl)-2-((3-methyl-1,2,4-oxadiazol-5-yl)methyl)-[1,2,4]triazolo[4,3-a]pyridin-3(2H)-one], for which the inhibition at 1 µM stood at 13.9%. For `O=c1n(Cc2noc(COc3ncccn3)n2)nc2ccc(-c3ccc(OC(F)(F)F)cc3)cn12` [compound 162, 2-((5-((pyrimidin-2-yloxy)methyl)-1,2,4-oxadiazol-3-yl)methyl)-6-(4-(trifluoromethoxy)phenyl)-[1,2,4]triazolo[4,3-a]pyridin-3(2H)-one] the value was 18.5%; for `Cn1cc(Cn2nc3ccc(-c4ccc(OC(F)(F)F)cc4)cn3c2=O)cn1` [compound 163, 2-((1-methyl-1H-pyrazol-4-yl)methyl)-6-(4-(trifluoromethoxy)phenyl)-[1,2,4]triazolo[4,3-a]pyridin-3(2H)-one], 12%; for `Cc1cc(Cn2nc3ccc(-c4ccc(OC(F)(F)F)cc4)cn3c2=O)on1` [compound 164, 2-((3-methylisoxazol-5-yl)methyl)-6-(4-(trifluoromethoxy)phenyl)-[1,2,4]triazolo[4,3-a]pyridin-3(2H)-one], 16.9%. Turning to `Cn1ccc(Cn2nc3ccc(-c4ccc(OC(F)(F)F)cc4)cn3c2=O)n1` [compound 165, 2-((1-methyl-1H-pyrazol-3-yl)methyl)-6-(4-(trifluoromethoxy)phenyl)-[1,2,4]triazolo[4,3-a]pyridin-3(2H)-one], the inhibition at 1 µM turned out to be 10.8%. Regarding `CCc1noc(Cn2nc3ccc(-c4ccc(OC(F)(F)F)cc4)cn3c2=O)n1` [compound 166, 2-((3-ethyl-1,2,4-oxadiazol-5-yl)methyl)-6-(4-(trifluoromethoxy)phenyl)-[1,2,4]triazolo[4,3-a]pyridin-3(2H)-one], the inhibition at 1 µM was found to be 24.4%. For `CCc1noc(Cn2nc3ccc(-c4ccc(C(F)(F)F)cc4)cn3c2=O)n1` [compound 167, 2-((3-ethyl-1,2,4-oxadiazol-5-yl)methyl)-6-(4-(trifluoromethyl)phenyl)-[1,2,4]triazolo[4,3-a]pyridin-3(2H)-one] the value was 26.2%; for `COCc1noc(Cn2nc3ccc(-c4ccc(C(F)(F)F)cc4)cn3c2=O)n1` [compound 168, 2-((3-(methoxymethyl)-1,2,4-oxadiazol-5-yl)methyl)-6-(4-(trifluoromethyl)phenyl)-[1,2,4]triazolo[4,3-a]pyridin-3(2H)-one], 19.1%; for `[2H]C([2H])([2H])c1noc(Cn2nc3ccc(-c4ccc(OC(F)(F)F)cc4)cn3c2=O)n1` [compound 169, 2-((3-trideuteromethyl-1,2,4-oxadiazol-5-yl)methyl)-6-(4-(trifluoromethoxy)phenyl)-[1,2,4]triazolo[4,3-a]pyridin-3(2H)-one], 24.1%. With `O=c1n(Cc2nnc(C3CC3)s2)nc2ccc(-c3ccc(OC(F)(F)F)cc3)cn12` [compound 170, 2-((5-cyclopropyl-1,3,4-thiadiazol-2-yl)methyl)-6-(4-(trifluoromethoxy)phenyl)-[1,2,4]triazolo[4,3-a]pyridin-3(2H)-one], the inhibition at 1 µM stood at 18%.

`O=c1[nH]nc2ccc(-c3ccc(C(F)(F)F)cc3)cn12` [compound 171, 6-(4-(trifluoromethyl)phenyl)-[1,2,4]triazolo[4,3-a]pyridin-3(2H)-one]: the inhibition at 1 µM amounted to 19.6%. For `Cc1cnc(Cn2nc3ccc(-c4ccc(C(F)(F)F)cc4)cn3c2=O)o1` [compound 172, 2-((5-methyloxazol-2-yl)methyl)-6-(4-(trifluoromethyl)phenyl)-[1,2,4]triazolo[4,3-a]pyridin-3(2H)-one] the value was 24.8%; for `Cc1nc(Cn2nc3ccc(-c4ccc(C(F)(F)F)cc4)cn3c2=O)oc1C` [compound 173, 2-((4,5-dimethyloxazol-2-yl)methyl)-6-(4-(trifluoromethyl)phenyl)-[1,2,4]triazolo[4,3-a]pyridin-3(2H)-one], 22.2%; for `O=c1n(CCOc2nccn3ccnc23)nc2ccc(-c3ccc(OC(F)(F)F)cc3)cn12` [compound 174, 2-(2-(imidazo[1,2-a]pyrazin-8-yloxy)ethyl)-6-(4-(trifluoromethoxy)phenyl)-[1,2,4]triazolo[4,3-a]pyridin-3(2H)-one], 26.3%.

`O=c1n(Cc2noc(COc3ccccn3)n2)nc2ccc(-c3ccc(OC(F)(F)F)cc3)cn12` [compound 175, 2-((5-((pyridin-2-yloxy)methyl)-1,2,4-oxadiazol-3-yl)methyl)-6-(4-(trifluoromethoxy)phenyl)-[1,2,4]triazolo[4,3-a]pyridin-3(2H)-one]: the inhibition at 1 µM is 28.9%. Next, `CCOc1ccccc1OCc1nc(Cn2nc3ccc(-c4ccc(OC(F)(F)F)cc4)cn3c2=O)no1` [compound 176, 2-((5-((2-ethoxyphenoxy)methyl)-1,2,4-oxadiazol-3-yl)methyl)-6-(4-(trifluoromethoxy)phenyl)-[1,2,4]triazolo[4,3-a]pyridin-3(2H)-one]: 25.5%. Next, `CC(C)Oc1ccnc(OCCn2nc3ccc(-c4ccc(OC(F)(F)F)cc4)cn3c2=O)n1` [compound 177, 2-(2-(4-isopropoxypyrimidin-2-yloxy)ethyl)-6-(4-(trifluoromethoxy)phenyl)-[1,2,4]triazolo[4,3-a]pyridin-3(2H)-one]: 25.8%; `O=c1n(CCOc2nccc(OCC(F)(F)F)n2)nc2ccc(-c3ccc(OC(F)(F)F)cc3)cn12` [compound 178, 2-(2-(4-(2,2,2-trifluoroethoxy)pyrimidin-2-yloxy)ethyl)-6-(4-(trifluoromethoxy)phenyl)-[1,2,4]triazolo[4,3-a]pyridin-3(2H)-one]: 14.2%; `O=c1n(CCOc2nccc(OCC3CC3)n2)nc2ccc(-c3ccc(OC(F)(F)F)cc3)cn12` [compound 179, 2-(2-(4-(cyclopropylmethoxy)pyrimidin-2-yloxy)ethyl)-6-(4-(trifluoromethoxy)phenyl)-[1,2,4]triazolo[4,3-a]pyridin-3(2H)-one]: 30.3%. For the compound `O=c1n(CCOc2ncc(C(F)(F)F)cn2)nc2ccc(-c3ccc(OC(F)(F)F)cc3)cn12` [compound 180, 6-(4-(trifluoromethoxy)phenyl)-2-(2-(5-(trifluoromethyl)pyrimidin-2-yloxy)ethyl)-[1,2,4]triazolo[4,3-a]pyridin-3(2H)-one], the inhibition at 1 µM came out at 22.6%. Consider `O=c1n(Cc2coc(C3CC3)n2)nc2ccc(-c3ccc(OC(F)(F)F)cc3)cn12` [compound 181, 2-((2-cyclopropyloxazol-4-yl)methyl)-6-(4-(trifluoromethoxy)phenyl)-[1,2,4]triazolo[4,3-a]pyridin-3(2H)-one], for which the inhibition at 1 µM turned out to be 23.9%. For `O=c1n(Cc2nnc(C3CC3)o2)nc2ccc(-c3ccc(Oc4ccc(F)cc4)cc3)cn12` [compound 182, 2-((5-cyclopropyl-1,3,4-oxadiazol-2-yl)methyl)-6-(4-(4-fluorophenoxy)phenyl)-[1,2,4]triazolo[4,3-a]pyridin-3(2H)-one] the value was 45.9%. Consider `CC(C)(C)c1cnc(Cn2nc3ccc(-c4ccc(OC(F)(F)F)cc4)cn3c2=O)o1` [compound 183, 2-((5-tert-butyloxazol-2-yl)methyl)-6-(4-(trifluoromethoxy)phenyl)-[1,2,4]triazolo[4,3-a]pyridin-3(2H)-one], for which the inhibition at 1 µM came out at 14.6%.
